In patent US10471025B2, “Compositions for use in treating parkinson's disease and related disorders” (Technophage, Investigação E Desenvolvimento Em …, priority 2015, dated 2019):
Where two headings read alike, the source gives them in different places.

Legend:
[1] = test system: 6-OHDA treated zebrafish larvae; assay: Rescue of Tyrosine hydroxylase (TH)-positive dopaminergic neurons in 6-OHDA zebrafish larvae; type: in vivo; conditions: for Neurorescue: TH+ neurons at optimal dose, p; for Neuroprotective effect / recovery of TH+ neurons: at the optimal concentration of each molecule
Procedure: The 7 candidates also were tested in terms of rescue of dopaminergic neurons positive for Tyrosine hydroxylase (Th) in the substancia nigra pars compacta of the test animals. […] Results were normalized for healthy control values (healthy control=100% of neurons). As a control, zebrafish were treated with only the vehicle, ascorbic acid. ‘6-OHDA_ represents results in zebrafish receiving no treatment.
FIGS. 6E-6G show representative Z-projections of confocal stacks of whole-mount anti-TH immunohistochemistry in 6 days post-fertilization (dpf) of zebrafish larvae (age of the fish) control (FIG. 6E), 6-OHDA (FIG. 6F), and tapentadol treated-larvae (FIG. 6G).

[2] = in vivo, cited from earlier work
[3] = in water; cited from earlier work
[4] = sc; cited from earlier work
[5] = test system: 6-OHDA treated zebrafish larvae; assay: LD50 / lethality in the disease context of the zebrafish model; conditions: 6-OHDA disease-induced zebrafish larvae
[6] = test system: 6-OHDA treated zebrafish larvae; assay: Co-administration with L-Dopa, total distance 6-OHDA larvae move; type: in vivo; conditions: total distance; L-Dopa 250 or 125 μM
rat = conditions: rat, cited from earlier work
[7] = test system: 6-OHDA treated zebrafish larvae; assay: Locomotor behavior rescue (total distance moved, number of jumps) in 6-OHDA zebrafish PD model; type: in vivo; conditions: for Effective concentration / peak, small range plot: phenotype recovery, total distance moved
Description: To model Parkinson ̆s disease (PD), a neurotoxin 6-OHDA (6-hyroxydopamine) based method was used in zebrafish and in mice. In this model, 6-OHDA-lesions induce motor manifestations in zebrafish and in mice, such as reduced locomotor ability, and the loss of dopaminergic neurons. Based on the 6-OHDA PD zebrafish model, compounds from a small molecules library were screened for rescue of the parkinsonian phenotype (Example 1, see below).
The screen was based on both the recovery of impaired locomotor behavior and dopaminergic neuronal loss.
Values were normalized for the mean of disease state in each experiment (disease=1). Each plot contains data from 3 independent experiments with a total of 24 larvae. As a control, zebrafish were treated with only the vehicle, ascorbic acid.
For these experiments, Tubingen (TU) wild-type zebrafish, a specific strain of wild-type zebrafish, were used.

6-OHDA mouse model [8] = assay: Cylinder test, 6-OHDA mice (Example 5); type: in vivo; conditions: vs 6-OHDA group; daily i.p.
6-OHDA mouse model [9] = assay: Open field test, 6-OHDA mice (Example 5); type: in vivo; conditions: 9 days post lesion, vs 6-OHDA group
Procedure: Open field testing evaluates mainly spontaneous activity. […] Four different parameters were recorded: maximum velocity (FIGS. 18A, 19A, and 20A), total distance moved (FIGS. 18B, 19B, and 20B), mean velocity (FIGS. 18C, 19C, and 20C), and latency to first reach the walls (FIGS. 18D, 19D, and 20D). All parameters were determined by the analysis of a 5 minute video, recorded 30 minutes after therapeutic administration. Values mean ě SEM (n=3-8).
For total distance moved (FIGS. 18B, 19B, and 20B) and mean velocity (FIGS. 18C, 19C, and 20C), an hour video also was analyzed for an animal per group, to evaluate the effect of the drug with time. For these analyses, a 5 minute video prior to therapeutic administration also was taken. […] Ethovision V10 system was used for making the videos for analysis.

6-OHDA mouse model [10] = assay: Abnormal involuntary movements, 6-OHDA mice (Example 5); type: in vivo; conditions: mouse, in vivo
Procedure: This condition results in a range of involuntary movements that can be evaluated by video tracking analyses. […] Evaluations were performed during two independent trials, 30 and 90 minutes after treatment administration. […] Nonetheless, forelimb and orofacial involuntary movements are extremely hard to detect, and reading errors occur, considering the size of the animals. Total abnormal involuntary movements are the sum of all 4 different involuntary movements evaluated and is the parameter often reported in the literature.
As FIGS. 17A-17F show, abnormal involuntary movements were evaluated using the cylinder test 28 days post injection. […] Values mean ě SEM (n=5-8).

[11] = test system: 6-OHDA treated zebrafish larvae; assay: Freezing (duration of freezing periods, light/dark stimulus) in 6-OHDA zebrafish larvae; type: in vivo; conditions: tapentadol 48.5, stavudine 50, nabumetone 0.91 μM; L-Dopa treatment
Procedure: In the zebrafish model, the locomotor impairment was measured and related with bradykinesia in patients. Tests included evaluating ‘freezing_ in response to a light/dark stimulus. 6-OHDA induced larvae had fewer freezing episodes but spent longer periods in the frozen state. In previous studies, the duration of freezing episodes has been analyzed in PD patients. […] Nonetheless, it is an inhibitor of the neuronal dopamine transporter and since 6-OHDA needs DAT to enter the neuron and induce the disease, methylphenidate may be a false positive.
As FIGS. 9B-9C show, freezing recovery was tested using 7 candidate molecules at optimal concentrations, in an exemplary experiment with n=8 fish, and methylphenidate and amantadine at 25 ? M.

C#CCN[C@@H]1CCc2ccccc21 [Rasagiline]
Neurorescue [1]: confirmed P < 0.11 | Neuroprotective effect / recovery of TH+ neurons [1]: confirmed | Oral bioavailability ([2]; po): 35% | Half-life [2]: 1.5 to 3.5 h | Solubility [3]: 53 mg/ml in | Effective rat dose [4]: 0.8 mg/kg/day | LD50 [5]: 187.5 | M | Effect of co-administration with L-Dopa on locomotor recovery [6]: increased effect | LD50 (rat): 300 mg/kg | Effective concentration / peak, small range plot [7]: 25 µM

N[C@@H](Cc1ccc(O)c(O)c1)C(=O)O [L-Dopa, Levodopa]
Cylinder test: number of rearings (6-OHDA mouse model [8]): no difference | Cylinder test: percentage of animals with tremor (6-OHDA mouse model [8]): motor recovery was observed | Cylinder test: percentage of contralateral paw use (6-OHDA mouse model [8]): motor recovery was observed | Neurorescue [1]: no | Neuroprotective effect / recovery of TH+ neurons [1]: does not induce the recovery of TH+ neurons | Neuroprotection of TH+ neurons ([1]; where the disease is less severe (sig *), preliminary): can be neuroprotective | Open field: latency to first reach the walls (6-OHDA mouse model [9]): did not show motor improvement | Solubility [3]: 3.3 mg/ml in | LD50 [5]: >5 mM | Induction of abnormal involuntary movements (6-OHDA mouse model [10]): induced these involuntary movements | LD50 (rat; in vivo, po): 1780 mg/kg | Duration of freezing periods, recovery vs 6-OHDA treated larvae [11]: no recovery | Optimal concentration ([7]; behavioral experiments and TH+ cell counts): 250 µM | Effective concentration / peak, small range plot [7]: 100 µM
